Laboratory results: US20130079305A1, “3-SUBSTITUTED VINYLBORONATES AND USES THEREOF” (Yissum Research Development Company of the Hebrew …, priority 2010, published 2013)

Tested on: HT-29 (colon cancer) cells
Assay: MTT assay, HT-29 (colon cancer) cells
Assay type: cell-based
Conditions: Homo sapiens, HT-29 cells, 72 h incubation
Procedure: (§1) ARH-77 (myeloma) and HT-29 (colon cancer) cells were grown and counted, and were thereafter plated in 96-wells plates to get 0.1×10^6 cells/well. The plates were left in the incubator overnight for cells attachment and the tested compounds were then added to the cells. The tested concentrations of the compounds were 1, 2, 5, 10, 20, 50 and 100 μM. The compounds were incubated with the cells for 24 hours, 48 hours or for 72 hours, and were thereafter subjected to the MTT assay.

Compound	IC50 [µM]
CCCCCCC(C)(O)/C(=C/B1OC(C)(C)C(C)(C)O1)CCC (centres unmarked) [Compound E5]	55
CCCCCCCC/C(=C\B1OC(C)(C)C(C)(C)O1)C(C)(O)CCCCCC (centres unmarked) [Compound E8]	> 100
CCCCC(C)(O)/C(=C/B1OC(C)(C)C(C)(C)O1)CCC (centres unmarked) [Compound E6]	80
CCC/C(=C\B1OC(C)(C)C(C)(C)O1)C1(O)CCCc2ccccc21 (centres unmarked) [Compound E3]	85
CCCCCCCC/C(=C\B1OC(C)(C)C(C)(C)O1)C(O)(c1ccccc1)C1CC1 (centres unmarked) [Compound E7]	15
CCC/C(=C\B1OC(C)(C)C(C)(C)O1)C(O)(c1ccccc1)C1CC1 (centres unmarked) [Compound E2]	85
CCC/C(=C\B1OC(C)(C)C(C)(C)O1)C(O)c1ccccc1 (centres unmarked) [Compound E4]	> 100

Tested on: ARH-77 (myeloma) cells
Assay: MTT assay, ARH-77 (myeloma) cells
Assay type: cell-based
Conditions: ARH-77 cells
Procedure: as §1

Compound	IC50, ARH-77, 72 h incubation
CCC/C(=C\B1OC(C)(C)C(C)(C)O1)C(O)c1ccccc1 (centres unmarked) [Compound E4]	not active

Same assay, conditions: Homo sapiens, ARH-77 cells, 72 h incubation

Compound	IC50 [µM]
CCCCCCC(C)(O)/C(=C/B1OC(C)(C)C(C)(C)O1)CCC (centres unmarked) [Compound E5]	30
CCCCCCCC/C(=C\B1OC(C)(C)C(C)(C)O1)C(C)(O)CCCCCC (centres unmarked) [Compound E8]	78
CCCCC(C)(O)/C(=C/B1OC(C)(C)C(C)(C)O1)CCC (centres unmarked) [Compound E6]	54
CCC/C(=C\B1OC(C)(C)C(C)(C)O1)C1(O)CCCc2ccccc21 (centres unmarked) [Compound E3]	65
CCCCCCCC/C(=C\B1OC(C)(C)C(C)(C)O1)C(O)(c1ccccc1)C1CC1 (centres unmarked) [Compound E7]	6
CCC/C(=C\B1OC(C)(C)C(C)(C)O1)C(O)(c1ccccc1)C1CC1 (centres unmarked) [Compound E2]	54
